The values below come from patent US4677113A, “Di-t-butylphenols substituted by a thenoyl group” (Riker Laboratories, Inc., priority 1986, dated 1987).

Test [1] has as its system leukotriene synthesis in homogenized rat basophil leukemia cells. Briefly: cell free leukotriene biosynthesis system (homogenized rat basophil leukemia cells, radioimmunoassay). The test is classed as biochemical. To be noted: synthesis initiated by arachidonate; drug preincubated five minutes; read-out: IC50, leukotriene synthesis inhibition. The procedure: This test utilizes the cell free leukotriene biosynthesis system of M. Steinhoff et al. Biochim. Acta. 68, 28 (1980), incorporated herein by reference, which consists of homogenized rat basophil leukemia cells. Leukotriene synthesis is initiated by the addition of arachidonate. Solutions are centrifuged and supernatants assayed using a radioimmunoassay developed as described by Aeringhaus et al. FEBS Letter 146, 111-114. Drugs are dissolved in ethanol or dimethyl sulfoxide and then preincubated for five minutes. Phenidone is used as a positive control.

Test [2] concerns bronchoconstriction in sensitized guinea pigs. Briefly: antigen-induced bronchoconstriction in sensitized guinea pigs (frequency of notching). The test is classed as in vivo, guinea pig. Particulars: Cavia porcellus, male Hartley guinea pigs pretreated with antihistamine, read-out: ED40, inhibition of bronchoconstriction. The procedure: Preferably, bronchoconstriction in sensitized guinea pigs is measured upon antigen challenge. This test is described in broad terms by Piechuta, et al., Immunology, 38, 385 (1979) and more specifically by Hammerbeck and Swingle, Int. Archs. Allergy Appl. Immun. 74, 84-90 (1984), both references being incorporated herein by reference. It was used in a modified form as follows: Male Hartley guinea pigs (250-600 g) which were pretreated with an antihistamine, e.g., chlorpheniramine and then dosed intraperitoneally with a compound of the invention at a level of about 1 to 40 mg/kg 15 minutes prior to challenge or orally at the same dose 30 minutes prior to challenge were aerosol challenged with either water or ovalbumim at a concentration of 10 mg per ml. The animals were placed under an inverted dessicator jar (18×14 cm) with a constant flow of air coming into the chamber from a compressed-air source to prevent hypoxia. Air flow leaving the chamber and fluctuations due to respiration were monitored through a separate outlet with a Fleisch No. 0000 pneumotachograph (available from Beckman Instruments, Inc., Schiller Park, Ill.) coupled to a Beckman Type R dynograph (available from Beckman Instruments, Inc.). Aerosolization through a third outlet was made via a No. 4 DeVilbiss nebulizer (available from the DeVilbiss Company, Somerset, PA) for 90 seconds at 150 mm Hg. […]

Like-named read-outs stand apart in the source and are kept apart here.

For orientation: IC50 means the concentration at which inhibition is half-maximal. Regarding `CC(C)(C)c1cc(C(=O)c2ccc(C(=O)O)s2)cc(C(C)(C)C)c1O` [5-(3',5'-di-t-butyl-4'-hydroxybenzoyl)thiophene-2-carboxylic acid], the IC50 in test [1] came to 15 µM. For the same molecule, the ED40 was less than 10 mg/kg in test [2] (ip, 0.25 h, administered intraperitoneally 15 minutes prior to ovalbumin aerosol challenge) and less than 25 mg/kg in test [2] (po, 0.5 h, administered orally 30 minutes prior to ovalbumin aerosol challenge).
